Reference: patent US20080269267A1, “KINASE INHIBITORS USEFUL FOR THE TREATMENT OF MYLEOPROLIFIC DISEASES AND OTHER PROLIFERATIVE DISEASES” (Deciphera Pharmaceuticals, LLC, priority 2007, published 2008)
Residue numbers refer to the chain shown, from its start. Counter-ions that a name gives are not always drawn.

Key:
[1] = target: T1, T315I Abl kinase (SEQ ID NO:2) (Homo sapiens, UniProt P00519, T315I); test: T315I Abl kinase assay (pyruvate kinase/lactate dehydrogenase coupled); conditions: 1 h preincubation at 30° C., ATP 500 μM; read-out: Abl T315l Enzyme Assay, biochemical IC50
T1 construct: purchased deCode Genetics
T1 sequence (P00519 with tags, fused parts or gaps T315I): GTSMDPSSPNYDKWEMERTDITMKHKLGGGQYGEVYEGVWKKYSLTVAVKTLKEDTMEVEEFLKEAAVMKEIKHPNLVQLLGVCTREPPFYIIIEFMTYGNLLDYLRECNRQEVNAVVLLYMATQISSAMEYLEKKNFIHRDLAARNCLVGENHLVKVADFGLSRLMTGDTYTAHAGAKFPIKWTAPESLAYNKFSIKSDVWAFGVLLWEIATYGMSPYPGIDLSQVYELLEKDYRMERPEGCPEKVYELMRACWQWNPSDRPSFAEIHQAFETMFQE
Procedure: Abl Kinase (SEQ ID NO:2) Assay
Activity of T315I Abl kinase (SEQ ID NO:2) was determined by following the production of ADP from the kinase reaction through coupling with the pyruvate kinase/lactate dehydrogenase system (e.g., Schindler, et al. Science (2000) 289, 1938-1942). In this assay, the oxidation of NADH (thus the decrease at A340nm) was continuously monitored spectrophometrically. The reaction mixture (100 μl) contained Abl kinase (4.4 nM. […] Abl from deCode Genetics), peptide substrate (EAIYAAPFAKKK, 0.2 mM), MgCl2 (10 mM), pyruvate kinase (4 units), lactate dehydrogenase (0.7 units), phosphoenol pyruvate (1 mM), and NADH (0.28 mM) in 90 mM Tris buffer containing 0.2% octyl-glucoside and 1% DMSO, pH 7.5. Test compounds were incubated with T315I Abl (SEQ ID NO:2) and other reaction reagents at 30° C. for 1 h before ATP (500 μM) was added to start the reaction. The absorption at 340 nm was monitored continuously for 2 hours at 30° C. on Polarstar Optima plate reader (BMG). The reaction rate was calculated using the 1.0 to 2.0 h time frame. Percent inhibition was obtained by comparison of reaction rate with that of a control (i.e. with no test compound). IC50 values were calculated from a series of percent inhibition values determined at a range of inhibitor concentrations using software routines as implemented in the GraphPad Prism software package.

Abl kinase (SEQ ID NO:1) = target: T2, Abl kinase (SEQ ID NO:1) (Homo sapiens, UniProt P00519); test: Abl kinase assay (pyruvate kinase/lactate dehydrogenase coupled, ADP production); conditions: 2 h preincubation at 30° C., ATP 500 μM; read-out: Abl Enzyme Assay, biochemical IC50
T2 construct: purchased deCode Genetics
T2 sequence (P00519 with tags, fused parts or gaps): T1 sequence (P00519 with tags, fused parts or gaps T315I) with I94T
Procedure: Abl Kinase (SEQ ID NO:1) Assay
Activity of Abl kinase (SEQ ID NO:1) was determined by following the production of ADP from the kinase reaction through coupling with the pyruvate kinase/lactate dehydrogenase system (e.g., Schindler, et al. Science (2000) 289, 1938-1942). In this assay, the oxidation of NADH (thus the decrease at A340nm) was continuously monitored spectrophometrically. The reaction mixture (100 μl) contained Abl kinase (1 nM. Abl from deCode Genetics), peptide substrate (EAIYAAPFAKKK. 0.2 mM), MgCl2 (10 mM), pyruvate kinase (4 units), lactate dehydrogenase (0.7 units), phosphoenol pyruvate (1 mM), and NADH (0.28 mM) in 90 mM Tris buffer containing 0.2% octyl-glucoside and 3.5% DMSO, pH 7.5. Test compounds were incubated with Abl (SEQ ID NO:1) and other reaction reagents at 30° C. for 2 h before ATP (500 μM) was added to start the reaction. The absorption at 340 nm was monitored continuously for 2 hours at 30° C. on Polarstar Optima plate reader (BMG). The reaction rate was calculated using the 1.0 to 2.0 h time frame. Percent inhibition was obtained by comparison of reaction rate with that of a control (i.e. with no test compound). IC50 values were calculated from a series of percent inhibition values determined at a range of inhibitor concentrations using software routines as implemented in the GraphPad Prism software package.

[2] = target: T3, C-Met kinase (SEQ ID NO:10) (Homo sapiens, UniProt P08581); test: C-Met kinase assay (pyruvate kinase/lactate dehydrogenase coupled); conditions: 0.5 h preincubation at 22° C., ATP 100 μM; read-out: c-Met Enzyme Assay, biochemical IC50
T3 construct: purchased Invitrogen PV3143
Procedure: C-Met Kinase (SEQ ID NO:10) Assay
Activity of C-Met kinase (SEQ ID NO:10) was determined by following the production of ADP from the kinase reaction through coupling with the pyruvate kinase/lactate dehydrogenase system (e.g., Schindler, et al. Science (2000) 289, 1938-1942). In this assay, the oxidation of NADH (thus the decrease at A340 nm) was continuously monitored spectrophometrically. The reaction mixture (100 μl) contained C-Met (c-Met residues; 956-1390, from Invitrogen, catalogue #PV3143, 6 nM), polyE4Y (1 mg/ml), MgCl2 (10 mM), pyruvate kinase (4 units), lactate dehydrogenase (0.7 units), phosphoenol pyruvate (1 mM), and NADH (0.28 mM) in 90 mM Tris buffer containing 0.25 mM DTT, 0.2% octyl-glucoside and 1% DMSO, pH 7.5. Test compounds were incubated with C-Met (SEQ ID NO:10) and other reaction reagents at 22° C. for 0.5 h before ATP (100 μM) was added to start the reaction. The absorption at 340 n=was monitored continuously for 2 hours at 30° C. on Polarstar Optima plate reader (BMG). The reaction rate was calculated using the 1.0 to 2.0 h time frame. Percent inhibition was obtained by comparison of reaction rate with that of a control (i.e. with no test compound). IC50 values were calculated from a series of percent inhibition values determined at a range of inhibitor concentrations using software routines as implemented in the GraphPad Prism software package.

[3] = target: T4, BaF3 cells transfected with T315I p210 BCR-Abl (Homo sapiens, UniProt P00519, T315I, cells depend on it); test: Ba/F3 p210 T315I whole cell proliferation assay (Cell Titer Blue, 72 hours); format: cell-based; conditions: 72 hours incubation; read-out: Ba/F3 p210 T315I whole cell proliferation assay, antiproliferation IC50
T4 construct: fused on or other part: P11274 (Breakpoint cluster region protein)
Procedure: (§1) BaF3 cells (parental or transfected with the following: wild type p210 BCR-Abl and T315I p210 BCR-Abl was obtained from Professor Richard Van Etten (New England Medical Center, Boston, Mass.). Briefly, cells were grown in RPMI 1640 supplemented with 10% characterized fetal bovine serum (HyClone, Logan, Utah) at 37 degrees Celsius, 5% CO2, 95% humidity. Cells were allowed to expand until reaching 80% saturation at which point they were subcultured or harvested for assay use.
(§2) A serial dilution of test compound was dispensed into a 96 well black clear bottom plate (Corning, Corning, N.Y.). For each cell line, three thousand cells were added per well in complete growth medium. Plates were incubated for 72 hours at 37 degrees Celsius, 5% CO2, 95% humidity. At the end of the incubation period Cell Titer Blue (Promega, Madison, Wis.) was added to each well and an additional 4.5 hour incubation at 37 degrees Celsius, 5% CO2, 95% humidity was performed. Plates were then read on a BMG Fluostar Optima (BMG, Durham, N.C.) using an excitation of 544 nm and an emission of 612 nm. Data was analyzed using Prism software (Graphpad, San Diego, Calif.) to calculate IC50's.

[4] = target: T5, BaF3 cells transfected with wild type p210 BCR-Abl (Homo sapiens, UniProt P00519); test: Ba/F3 p210 whole cell proliferation assay (Cell Titer Blue, 72 hours); format: cell-based; conditions: 72 hours incubation; read-out: Ba/F3 p210 whole cell proliferation assay, antiproliferation IC50
T5 construct: fused on or other part: P11274 (Breakpoint cluster region protein)
Procedure: as §1, §2

[5] = target: B-Raf(V600E) kinase (SEQ ID NO:11) (Homo sapiens, UniProt P15056, V600E); test: B-Raf(V600E) kinase assay (pyruvate kinase/lactate dehydrogenase coupled, MEK1 substrate); conditions: 1 h preincubation at 30° C., ATP 0.2 mM; read-out: B-Raf V600E Enzyme Assay, biochemical IC50
Procedure: B-Raf(V600E) Kinase Assay
The activity of B-Raf(V600E) kinase (SEQ ID NO:11) was determined by following the formation of ADP from the reaction through coupling with the pyruvate kinase/lactate dehydrogenase system (e.g., Schindler, et al. Science (2000) 289, 1938-1942). In this assay, the oxidation of NADH (thus the decrease at A340nm) was continuously monitored spectrophotometrically. The reaction mixture (100 μl) contained B-Raf(V600E) kinase (0.34 nM nominal concentration, SEQ ID NO:11), unphosphorylated, full-length MEK1 (42 nM, SEQ ID NO:12), MgCl2 (13 mM), pyruvate kinase (3.5 units), lactate dehydrogenase (5.5 units), phosphoenolpyruvate (1 mM), and NADH (0.28 mM), in 60 mM Tris buffer, containing 0.13% octyl-glucoside and 3.5% DMSO concentration at pH 7.5. The test compounds were incubated with the reaction mixture at 30° C. for 1 h. The reaction was initiated by adding ATP (0.2 mM, final concentration). The absorption at 340 nm was continuously monitored for 3 h at 30° C. on a Polarstar Optima plate reader (BMG). The reaction rate was calculated using the 0.5 h to 1.5 h time frame. Percent inhibition was obtained by comparison of reaction rate with that of a control (i.e. with no test compound). IC50 values were calculated from a series of percent inhibition values determined at a range of inhibitor concentrations using software routines as implemented in the GraphPad Prism software package.

T3 sequence (P08581 with tags, fused parts or gaps): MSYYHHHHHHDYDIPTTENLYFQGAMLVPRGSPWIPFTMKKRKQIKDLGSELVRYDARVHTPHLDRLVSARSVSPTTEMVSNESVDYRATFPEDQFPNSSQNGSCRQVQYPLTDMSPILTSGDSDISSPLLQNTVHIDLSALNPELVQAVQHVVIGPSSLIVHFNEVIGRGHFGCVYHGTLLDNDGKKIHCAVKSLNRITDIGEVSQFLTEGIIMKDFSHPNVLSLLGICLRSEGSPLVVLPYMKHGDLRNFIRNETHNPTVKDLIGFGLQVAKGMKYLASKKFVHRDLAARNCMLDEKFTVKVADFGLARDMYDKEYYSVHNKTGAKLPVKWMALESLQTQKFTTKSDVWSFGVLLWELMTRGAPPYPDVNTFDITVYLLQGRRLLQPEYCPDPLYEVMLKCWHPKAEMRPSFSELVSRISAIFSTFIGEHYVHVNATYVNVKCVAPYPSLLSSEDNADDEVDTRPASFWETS
B-Raf(V600E) kinase (SEQ ID NO:11), sequence (P15056 with tags, fused parts or gaps V600E): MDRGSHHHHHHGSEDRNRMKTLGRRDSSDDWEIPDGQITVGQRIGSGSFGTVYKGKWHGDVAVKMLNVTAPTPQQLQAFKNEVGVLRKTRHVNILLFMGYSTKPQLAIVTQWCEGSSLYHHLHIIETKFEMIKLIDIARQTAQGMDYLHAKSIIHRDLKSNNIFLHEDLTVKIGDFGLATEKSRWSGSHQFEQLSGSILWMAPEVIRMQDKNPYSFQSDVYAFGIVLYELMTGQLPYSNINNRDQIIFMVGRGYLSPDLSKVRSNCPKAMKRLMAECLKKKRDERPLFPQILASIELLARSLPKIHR

Which IC50 [1] does the source give for `Cn1cc(-c2cc(Oc3ccc(NC(=O)Nc4cc(C(C)(C)C)nn4-c4ccccc4)c(F)c3)ccn2)cn1` [Example 1, 1-(3-t-butyl-1-phenyl-1H-pyrazol-5-yl)-3-(2-fluoro-4-(2-(1-methyl-1H-pyrazol-4-yl)pyridin-4-yloxy)phenyl)urea] here?
The IC50 was < 0.1 µM.

And the IC50 (Abl kinase (SEQ ID NO:1))?
Its IC50 is < 0.1 µM.

And the IC50 [2]?
Its IC50 is < 0.1 µM.

And the GI50 [3]?
The GI50 was < 0.1 µM.

And the GI50 [4]?
Its GI50 is < 0.1 µM.

`CCCn1cc(-c2cc(Oc3ccc(NC(=O)Nc4cc(CC)nn4-c4cccc(C#N)c4)c(F)c3)ccn2)cn1` [Example 15, 1-(1-(3-cyanophenyl)-S-ethyl-1H-pyrazol-5-yl)-3-(2-fluoro-4-(2-(1-propyl-1H-pyrazol-4-yl)pyridin-4-yloxy)phenyl)urea] was tested. Which IC50 (Abl kinase (SEQ ID NO:1)) did it give?
Its IC50 is < 0.1 µM.

What about the IC50 [5] of the same molecule?
The IC50 was < 1 µM.

What about the IC50 [2] of the same molecule?
Its IC50 is < 1 µM.

What about the GI50 [3] of the same molecule?
The GI50 was < 0.1 µM.

And the GI50 [4]?
Its GI50 is < 0.1 µM.

With `CCc1cc(NC(=O)Nc2ccc(Oc3ccnc(-c4cnn(CC)c4)c3)cc2F)n(-c2cccc(C#N)c2)n1` [Example 18, 1-(1-(3-cyanophenyl)-3-ethyl-1H-pyrazol-5-yl)-3-(4-(2-(1-ethyl-1H-pyrazol-4-yl)pyridin-4-yloxy)-2-fluorophenyl)urea] as the molecule, how does the IC50 (Abl kinase (SEQ ID NO:1)) read?
Its IC50 is < 0.1 µM.

What about the IC50 [5] of the same molecule?
Its IC50 is < 1 µM.

What about the IC50 [2] of the same molecule?
Its IC50 is < 1 µM.

What about the GI50 [3] of the same molecule?
Its GI50 is < 0.1 µM.

And the GI50 [4]?
Its GI50 is < 0.1 µM.

What does the source list for `CC(C)n1ncc(NC(=O)Nc2ccc(Oc3ccnc(-c4cnn(C)c4)c3)cc2F)c1-c1ccccc1` [Example 20, 1-(2-fluoro-4-(2-(1-methyl-1H-pyrazol-4-yl)pyridin-4-yloxy)phenyl)-3-(1-isopropyl-5-phenyl-1H-pyrazol-4-yl)urea]?
IC50 (Abl kinase (SEQ ID NO:1)): < 0.1 µM; IC50 [5]: < 10 µM; GI50 [3]: < 1 µM; GI50 [4]: < 0.1 µM

Which IC50 (Abl kinase (SEQ ID NO:1)) does the source give for `CCn1ncc(NC(=O)Nc2ccc(Oc3ccnc(-c4cnn(C)c4)c3)cc2F)c1-c1ccccc1` [Example 22, 1-(1-ethyl-5-phenyl-1H-pyrazol-4-yl)-3-(2-fluoro-4-(2-(1-methyl-1H-pyrazol-4-yl)pyridin-4-yloxy)phenyl)urea hydrochloride] here?
Its IC50 is < 1 µM.

What about the IC50 [5] of the same molecule?
Its IC50 is < 10 µM.

`CCn1cc(NC(=O)Nc2ccc(Oc3ccnc(-c4cnn(C)c4)c3)cc2F)c(-c2ccccc2)n1` [Example 23, 1-(1-ethyl-3-phenyl-1H-pyrazol-4-yl)-3-(2-fluoro-4-(2-(1-methyl-1H-pyrazol-4-yl)pyridin-4-yloxy)phenyl)urea hydrochloride] was tested. Which IC50 (Abl kinase (SEQ ID NO:1)) did it give?
Its IC50 is < 0.1 µM.

What about the IC50 [5] of the same molecule?
The IC50 was < 10 µM.
